Source: patent US20150157021A1, “NEW ANTIFUNGAL COMPOSITIONS” (DSM IP ASSETS B.V., priority 2012, published 2015)

Tested on: Botrytis cinerea
Experiment: Treatment of wounded sweet peppers inoculated with Botrytis cinerea (Examples 9, 10)
Assay type: in vivo
Settings: 20° C., 400 ppm natamycin
Procedure: Ten fresh, organic sweet peppers were used per treatment. Each sweet pepper was soaked in a 180 ppm hypochlorite solution for 10 minutes, then rinsed thoroughly with fresh tap water and dried. The peel of each disinfected sweet pepper was wounded once using a cork borer according to the method described by de Lapeyre de Bellaire and Dubois (1987). Subsequently, each wound was inoculated with 10 μl of a Botrytis cinerea suspension containing 1×10^5 of spores/ml. After incubation for 3 hours at 20° C., each wound and the skin area of 0.5 cm around the wound was treated with in total 75 μl of a freshly prepared aqueous antifungal composition comprising either 400 ppm natamycin (DSM Food Specialties, Delft, The Netherlands), 600 ppm fenhexamid or both. Each antifungal composition also comprised 3.2% (w/w) beeswax, 0.8% (w/w) glycerol, 0.7% (w/w) polyoxyethylene sorbitan monostearate (Tween 60), 0.2% (w/w) polyoxyethylene sorbitan monooleate (Tween 80), 0.05% (w/w) methylhydroxyethyl-cellulose (MHEC), 0.03% (w/w) anti-foaming agent, 0.02% (w/w) xanthan gum, 0.02% (w/w) citric acid, 0.01% (w/w) lactic acid and 0.01% potassium sorbate. A composition without natamycin or fenhexamid was used as control.
The treated sweet peppers were incubated in a closed box in the dark at 20° C. and assessed on mould growth during a 26-day incubation period. The antifungal activity (in %) of the individual and combined active ingredients was determined by calculating the reduction in mould growth observed on the sweet peppers treated with the antifungal composition in comparison to the mould growth on the sweet peppers treated with the control composition according to the Colby method (Colby, 1967) described in Example 5.
The experiment was conducted as described in Example 9, except for the fact that each wounded and inoculated sweet pepper was treated with 75 μl of a freshly prepared aqueous antifungal composition comprising either 400 ppm natamycin (DSM Food Specialties, Delft, The Netherlands), 800 ppm carboxin or both. The treated sweet peppers were incubated in a closed box in the dark at 20° C. and assessed on mould growth during a 26-day incubation period. During incubation, the treated sweet peppers were assessed on mould growth according to the method described in Example 9.

**Q.** What does the source list for C[C@@H]1C/C=C/C=C/C=C/C=C/[C@H](O[C@@H]2O[C@H](C)[C@@H](O)[C@H](N)[C@@H]2O)C[C@@H]2O[C@](O)(C[C@@H](O)C[C@H]3O[C@@H]3/C=C/C(=O)O1)C[C@H](O)[C@H]2C(=O)O [Natamycin, natamycin]?
**A.** Observed antifungal activity O (%) (13-17 days, 600 ppm fenhexamid or both): 86%; Observed antifungal activity O (%) (17-19 days, 800 ppm carboxin or both): 86%; Observed antifungal activity O (%) (18-22 days, 600 ppm fenhexamid or both): 86%; Observed antifungal activity O (%) (20-21 days, 800 ppm carboxin or both): 87%; Observed antifungal activity O (%) (6 days, 600 ppm fenhexamid or both): 95%; Observed antifungal activity O (%) (8 days, 600 ppm fenhexamid or both): 94%; Observed antifungal activity O (%) (10 days, 600 ppm fenhexamid or both): 89%; Observed antifungal activity O (%) (11 days, 600 ppm fenhexamid or both): 87%; Observed antifungal activity O (%) (22 days, 800 ppm carboxin or both): 85%; Observed antifungal activity O (%) (24 days, 600 ppm fenhexamid or both): 83%; Observed antifungal activity O (%) (24 days, 800 ppm carboxin or both): 83%; Observed antifungal activity O (%) (25 days, 600 ppm fenhexamid or both): 82%; Observed antifungal activity O (%) (25 days, 800 ppm carboxin or both): 82%; Observed antifungal activity O (%) (26 days, 600 ppm fenhexamid or both): 79%; Observed antifungal activity O (%) (26 days, 800 ppm carboxin or both): 79%
